Patent publication US20170042908A1, “METHOD FOR TREATING GEOGRAPHIC ATROPHY ASSOCIATED WITH AGE-RELATED MACULAR DEGENERATION” (NATIONAL UNIVERSITY CORPORATION KAGAWA UNIVERSITY, priority 2014, published 2017)

Tests used:
geographic atrophy (GA) = test: Clinical study: GA area by fundus autofluorescence imaging (RegionFinder); format: in vivo, human
Protocol: (§1) A prospective, randomized, placebo-controlled study was performed for forty-eight eyes with GA which had not a recurrence of exudative AND for at least 6 months after receiving the treatment for exudative AND. The eyes of the treatment group received two drops of 0.15% isopropyl unoprostone (IU) three times a day for 54 weeks. Participants were examined before starting the study (baseline) and at 4, 8, 12, 24, 36, and 54 weeks to measure GA area, the change in GA, the GA enlargement rate and the logarithm of the minimum angle of resolution (logMAR) visual acuity. The placebo group eyes received the vehicle 3 times a day.
(§2) Two drops of the test drug or the placebo (vehicle) were administered at 5 minute intervals to the eyes three times a day, i.e. morning, afternoon, and night.
(§3) Study duration: 54 weeks.
(§4) The participants were examined to measure the following items at enrollment (baseline) and at 4, 8, 12, 24, 36 and 54 weeks.
Fundus autofluorescence images were obtained using BluePeak™ blue laser fundus autofluorescence (FAF) and confocal scanning laser ophthalmoscopy reflectance (OSLO). Hypofluorescent areas that reflect decreased autofluorescence were defined as GA areas. In detail, digital images obtained as above were calibrated and analyzed using RegionFinder™ software (version 2.4, Heidelberg Engineering, Germany) to define and quantify GA areas. Obtaining the fundus autofluorescence images, analyzing the obtained images and defining GA areas were performed according to the manuals of the equipment and software.
At each measurement time, the GA size, the change in GA area from the baseline and the GA enlargement rate from the baseline were determined.

[1] = Clinical study: logMAR visual acuity; format: in vivo, human; settings: U group
Protocol: as §1, §2, §3, §4
Visual acuity was examined and the obtained value was converted the logarithm of the minimum angle of resolution (LogMar) to give logMar visual acuity.

With `CCCCCCCC(=O)CC[C@@H]1[C@@H](C/C=C\CCCC(=O)OC(C)C)[C@@H](O)C[C@H]1O` [isopropyl unoprostone, 13,14-dihydro-15-keto-20-ethyl F2α isopropyl ester] the “mean change in GA area at week 54” value (geographic atrophy (GA); U group (24 eyes), 0.15% eye drops two drops three times a day, 54 weeks, change from baseline (baseline 2.71±2.03 mm^2), p<0.001 vs placebo) was 0.44±0.39 mm^2, the “enlargement of GA (conclusion)” value (geographic atrophy (GA); eye drops, 54 weeks, vs placebo) was “could suppress the enlargement of GA” and the “change in geographic atrophy (GA) area (conclusion)” value (geographic atrophy (GA); patients who developed GA after treatment for exudative AMD, eye drops) was “statistically significant suppression”. For the same compound, the “GA enlargement rate at 54 week” value (geographic atrophy (GA); representative U group case, person with typical AMD, left eye, 0.15% eye drops, two drops three times a day, vs baseline) was 118%, the “GA area, difference between U and P groups” value (geographic atrophy (GA); throughout the study) was “no statistically significant difference” and the “logMAR visual acuity, trend over time” value ([1]; over the study, no statistically significant difference over the baseline) was “tended to improve over time”. For the same compound, the “logMAR visual acuity at week 4” value ([1]; week 4, baseline 0.39±0.39, p=0.62 vs P group) was 0.33±0.34 and the “logMAR visual acuity at week 54” value ([1]; week 54, baseline 0.39±0.39, p=0.27 vs P group) was 0.37±0.34.
